In US5219825A, “Synergistic herbicidal compositions comprising herbicides which generate toxic oxygen radicals and chelating agents which inhibit their detoxification” (Yeda Research and Development Co., Ltd., priority 1986, dated 1993):

How the values were obtained:
[1] = tested on: isolated Asparagus sprengeri cells; assay: Chlorophyll loss in isolated cells (synergism at the cellular level); format: cell-based; conditions: for % of control chlorophyll: low light 305 μEin m^-2 s^-1
Experimental: Isolated cells offer an excellent rapid method of screening for phytotoxicity using a large number of potential chelators and synergists. Asparagus sprengeri cells were isolated from cladophylls of field grown plants using the procedure of Colman et al. (Can. J. Botany 57 1505, (1979)) except that the isolation, washing and culture buffer was 50 mM HEPES brought to pH 7.2 with KOH. The cladophylls were surface sterilized using 80% aqueous ethanol. After three centrifugations to remove broken cells, the cells were diluted to 10% packed volume and 0.75 ml were placed in each well of cluster dishes. The potential synergists in this example 0.02% w/v final concentration diethyldithiocarbamate (DDC) and an oxime of 4-octyl-2-acetyl-phenol (U.S. Pat. No. 4,215,219) which complex primarily with copper and di-2-ethylhexyl-phosphoric acid which complexes primarily with zinc (Flett, Chem and Ind. 17 706, (1977)) was placed with the herbicides atrazine and paraquat. All additions were made at 100 fold the final concentration of herbicide and synergist. Paraquat was dissolved in water and atrazine in methanol. The cluster dishes were incubated on a reciprocal shaker with a clear plastic bottom and illuminated from top and bottom with fluorescent lights emitting 135 μEin.m^-2 s^-1 (top) and 170 μEin.m^-2 s^-1 (bottom). The cells were kept mixed by the shaker and incubation was at room temperature. Incubation was stopped when there was visually obvious loss of chlorophyll due to treatments in a given experiment. The cells were removed to glass centrifugation tubes, centrifuged and the supernatant removed. One ml of 80% aqueous acetone was added to extract chlorophyll, the debris were sedimented by centrifugation and chlorophyll was spectrophotometrically determined at 645 and 663 nm according to Arnon (Plant Physiology 24 1, (1949)). […] In another experiment, a larger variety of chelating synergists and oxidant generating herbicides were used, and light was given at a much higher intensity 1000 μEin m^-2 s^-1 to better approach natural sunlight which is at 1200-1500 […].
Paraquat toxicity was measured 24 h after treatment and atrazine toxicity was measured 40 h after treatment.
Paraquat toxicity was measured 14 h after treatment.

[2] = tested on: Conyza bonariensis high herbicide requiring biotype; assay: Whole plant spray, visual rating; format: in vivo
Description: (§1) Seeds of Conyza bonariensis were germinated and plants cultivated as outlined in Example 1. Other species were germinated in a similar mixture and treated at 10 days.
(§2) The commercial fungicides, maneb [manganese ethylene-bis(dithiocarbamate) (polymeric)] and zineb [zinc ethylene-bis (dithiocarbamate) (polymeric)] were used, they have similar structures and effects as DDC, but are blocked and act as chelate controls […] to clarify that a synergism would be due to the chelating effect of diethyldithiocarbamate. […] They could not chelate copper due to their being blocked.
(§3) ^a visual ratings (scored 1 day after treatment): 0 no damage to
(§4) slight burn; 1 moderate burn (may regenerate); 2 severe burn (will die)
(§5) Similarly, both the paraquat resistant and sensitive biotypes of Conyza bonariensis were treated with two other oxidant generating herbicides. Atrazine (of the triazine group) is the most widely used oxidant generating herbicides in agriculture. We used various dilutions of a commercial wettable powder (Atranex 50WP-Agan Chemicals) to which we added 0.5% DDC. The effects were scored 24 h later. […] We also tested to see whether acifluorfen, a nitro diphenyl ether herbicide would be synergized. It is generally agreed that light and oxygen are required for its action via oxidant damage. We sprayed a commercial formulation of acifluorfen (Blazer, Rohm and Haas) to which were added 0.25% Tween-20 detergent, with and without DDC. The effects were scored 24 h later.

[3] = tested on: Conyza bonariensis low herbicide requiring biotype; assay: Whole plant spray, visual rating; format: in vivo
Description: as §1, §2, §3, §4, §5

[4] = tested on: Biotypes of certain weed species; conditions: cited from earlier work
[5] = tested on: Conyza bonariensis paraquat sensitive (low herbicide requiring) biotype; assay: Malonyldialdehyde in tissue (lipoxidation, membrane damage) after spraying; format: in vivo; conditions: atrazine 0 μM; DDC 0.5% alone; low herbicide requiring biotype; untreated control = 100
Experimental: (§6) Seeds of two biotypes of Conyza bonariensis (L.) Cronq. (synonym C. linifolia) were obtained from Egypt. The paraquat sensitive biotype was gathered near Alexendria and seeds of the resistant type from the Tahrir irrigation district. They were obtained from Dr. Martin Parham in England. Seeds were germinated in a growth room with a 14 h light period at 25° C. Plants were transferred out of doors 24 h before being sprayed. The phytotoxicity of three herbicides representative of the three different modes of generating active oxygen species known at present. Commercial paraquat (Gramoxone-ICI Plant Protection Ltd) was formulated with 0.1% (w/v) Tween-20 (a non-ionic surfactant) for spraying. The response to the range of 10^-5 M to 10^-2 M paraquat was measured by spraying two plants per concentration to run-off in the early morning. All plants were exposed to sunlight for at least 13 h (1300 μE.m^-2s^-1 photosynthetically active radiation (PAR) at mid day). Commercial acifluorfen (Blazer, Rohm, and Hass, Philadelphia, Pa., USA) to which was added 0.25% Tween-20 was sprayed to run-off. The response to spraying was measured as with paraquat 24 h after spraying. Commercial atrazine (Atranex 50 WP-Agan) was sprayed at various rates in 0.25% Tween 20 to run off. Fully expanded, 8 to 10 cm long leaves from plants in the rosette stage were used in all experiments. Phytotoxicity of acifluorfen and paraquat was measured as CO2 fixation 24 h later as follows: Detached leaves were placed on wet filter paper in a sealed chamber with 5μ Ci^14 C-sodium bicarbonate. Tartaric acid was remotely dripped on the sodium bicarbonate to release ^14 CO2. Leaves were illuminated with […] (PAR) for 30 min. Eighty percent acetone was added and the mixture put under strong light to photobleach pigments and evaporate the acetone. A scintillation mixture of Lumax:xylene (45:55) was added to the leaves and remaining water. The samples were counted and the data expressed as DPM.cm^-2. Area was measured with a planimeter from photocopies of the leaves made prior to photosynthesis measurements. Phytotoxicity of atrazine was measured as the elevated level of malonyldialdehyde in the tissue. Malonyldialdehyde (as measured with thiobarbituric acid according to Dodge and Gillham (Asp. Appl. Biol 11 97 (1986)) is a measurement of lipoxidation of unsaturated fatty acids, and provides an excellent estimation of damage by active oxygen species.
(§7) ^b membrane damage was measured as malonyldialdehyde release
as §5

[6] = tested on: Conyza bonariensis paraquat tolerant (high herbicide requiring) biotype; assay: as above; format: in vivo; conditions: atrazine 0 μM; DDC 0.5% alone; high herbicide requiring biotype; untreated control = 100
Experimental: as §6, §7, §5

[7] = tested on: Conyza bonariensis low herbicide requiring biotype; assay: Photosynthesis (14CO2 fixation) of leaf discs removed 5 h after spray treatment; format: in vivo; conditions: foliar, acifluorfen 0 μM, DDC 0.5% alone, leaf discs removed 5 h after treatment, untreated control = 100
Experimental: as §5
^b photosynthesis (^14 CO2 fixation) was used as an
additional measurement of phytotoxicity. Leaf discs were removed 5 h afte
treatment for measurement

Structure (SMILES) | chlorophyll remaining - % of control ([1]; isolated cladophyll cells, 840 min) | chlorophyll remaining - % of control ([1]; paraquat 10 μM, Tetraethylene-pentamine 0.025% where added, 14 h, 1000 μEin m^-2 s^-1) | chlorophyll remaining - % of control ([1]; paraquat 20 μM, 4-Octyl-2-acetyl-phenol oxime 0.125% where added, 14 h, 1000 μEin m^-2 s^-1) | chlorophyll remaining - % of control ([1]; paraquat 20 μM, Pyridine-2,6-dicarboxylic acid 0.005% where added, 14 h, 1000 μEin m^-2 s^-1) | chlorophyll remaining - % of control ([1]; paraquat 20 μM, di-2-ethyl-hexyl-phosphoric acid 0.001% where added, 14 h, 1000 μEin m^-2 s^-1) | % of control chlorophyll ([1]; paraquat 10^-6, DDC 0.02% where added, 24 h, 1 µM) | effect of paraquat spray ([2]; 1 mM spray of paraquat, paraquat resistant biotype) | visual rating ([2]; paraquat 1000 μM spray to run-off, DDC 0.75% W/V where added, high herbicide requiring biotype, scored 1 day after treatment) | visual rating ([3]; paraquat 30 μM spray to run-off, DDC 0.75% W/V where added, scored 1 day after treatment) | rate that does not kill resistant biotypes ([4]; biotypes that have evolved resistance to paraquat) [kg/ha] | rate that controls the sensitive biotype ([4]; sensitive biotype of the same species) [kg/ha] | membrane damage (malonyldialdehyde release) [5] | membrane damage (malonyldialdehyde release) [6] | % of control chlorophyll ([1]; no herbicide, DDC 0.02% alone, atrazine series, 40 h) | % of control chlorophyll ([1]; no herbicide, DDC 0.02% alone, paraquat series, 24 h) | visual ratings ([2]; atrazine 0 μM, DDC 0.5% alone, high herbicide requiring biotype, scored one day after treatment) | visual ratings ([3]; atrazine 0 μM, DDC 0.5% alone, scored one day after treatment) | activity at 0.5 % [7] [%]
C[n+]1ccc(-c2cc[n+](C)cc2)cc1 [paraquat, 1,1'-dimethyl-4-4'bipyridium ion] | 56 % of control | 89 % of control | 74 % of control | 9 % of control | 72 % of control | 107 % of control | hardly affected | 0.9 | 1.8 | > 16 | 1 |  |  |  |  |  |  | 
CCN(CC)C(=S)[S-].[Na+] [DDC, Sodium diethyldithiocarbamate] |  |  |  |  |  |  |  |  |  |  |  | 125 | 112 | 120 % of control | 116 % of control | 0.6 | 1.6 | 92
